Measured values as given in the NIST ThermoML archive (doi:10.1021/je900259b).

How the values were obtained:
[1] = Liquid; for mass density: 298.15 K, 101.33 kPa, Vibrating tube method; for vapor or sublimation pressure: Closed cell (Static) method; for Normal boiling temperature: Ebulliometric method (Recirculating still)
[2] = refractive index (Na D-line) (dimensionless); conditions: 298.15 K; 101.33 kPa; Liquid; Standard Abbe refractometry

COCCO [2-methoxyethan-1-ol]
Conditions | mass density [kg/m3] | refractive index
[1] | 960.02 | –
[2] | – | 1.4006

[1]
Conditions | vapor or sublimation pressure [kPa]
345.94 K | 14.98
349.54 K | 17.51
352.72 K | 20.02
355.49 K | 22.45
358.12 K | 25.02
360.51 K | 27.53
362.72 K | 29.98
364.76 K | 32.52
366.62 K | 34.91
368.51 K | 37.49
370.14 K | 39.92
371.85 K | 42.51
373.35 K | 44.91
374.89 K | 47.49
376.28 K | 49.96
377.65 K | 52.42
378.98 K | 54.96
380.23 K | 57.48
381.44 K | 59.94
382.64 K | 62.46
383.74 K | 64.87
384.89 K | 67.49
385.95 K | 69.92
387.02 K | 72.45
388.02 K | 74.99
388.98 K | 77.41
389.94 K | 79.86
390.92 K | 82.45
391.85 K | 84.96
392.74 K | 87.49
393.61 K | 89.96
394.47 K | 92.48
395.32 K | 94.94
396.12 K | 97.48
396.96 K | 100.03
397.37 K | 101.3

C1CCCCC1 [cyclohexane]
Conditions | Normal boiling temperature [°C] | mass density [kg/m3] | refractive index
[1] | 80.58 | 773.82 | –
[2] | – | – | 1.4238

C1=CCCCC1 [cyclohexene]
Conditions | Normal boiling temperature [°C] | mass density [kg/m3] | refractive index
[1] | 82.82 | 805.69 | –
[2] | – | – | 1.4444
